In BindingDB's records for doi:10.1016/S0960-894X(96)00606-3 (1997):

Target: T1, C5a anaphylatoxin chemotactic receptor 1 (Homo sapiens, UniProt P21730)
T1 sequence (P21730 whole entry): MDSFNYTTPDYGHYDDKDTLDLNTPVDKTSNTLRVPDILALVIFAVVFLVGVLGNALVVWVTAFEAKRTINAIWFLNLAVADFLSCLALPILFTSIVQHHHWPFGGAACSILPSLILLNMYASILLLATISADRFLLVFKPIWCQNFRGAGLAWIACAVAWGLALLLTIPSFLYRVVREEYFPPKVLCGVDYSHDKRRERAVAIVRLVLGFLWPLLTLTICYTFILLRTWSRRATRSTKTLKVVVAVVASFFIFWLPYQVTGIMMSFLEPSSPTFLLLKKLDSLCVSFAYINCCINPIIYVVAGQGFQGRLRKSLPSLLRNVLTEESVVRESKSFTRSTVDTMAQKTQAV
Experiment: ChEBML_41457
Text: Tested for its ability to compete with [125I]C5a for binding to C5a anaphylatoxin chemotactic receptor of human neutrophil membrane preparations

Row | Compound | IC50
1 | N=C(N)NCCCc1[nH]c(=O)n([C@H](Cc2ccc(O)cc2)C(=O)N2CCC3(CCc4ccccc43)CC2)c1O [5-[3-amino(imino)methylaminopropyl]-3-[1-(4-hydroxybenzyl)-2-oxo-2-spiro[2,3-dihydro-1H-indene-1,4'-(hexahydropyridine)]-1-yl-(1R)-ethyl]-(5R)-tetrahydro-1H-2,4-imidazoledione] | 4 µM
2 | CCC[C@H](C(=O)N1CCC2(CCc3ccccc32)CC1)n1c(O)c(CCCNC(=N)N)[nH]c1=O [5-[3-amino(imino)methylaminopropyl]-3-[1-spiro[2,3-dihydro-1H-indene-1,4'-(hexahydropyridine)]-1-ylcarbonyl-(1R)-butyl]-(5R)-tetrahydro-1H-2,4-imidazoledione] | 3 µM
3 | NCCCCc1[nH]c(=O)n([C@H](CC2CCCCC2)C(=O)N2CCC3(CCc4ccccc43)CC2)c1O [5-(4-aminobutyl)-3-[1-cyclohexylmethyl-2-oxo-2-spiro[2,3-dihydro-1H-indene-1,4'-(hexahydropyridine)]-1-yl-(1R)-ethyl]-(5R)-tetrahydro-1H-2,4-imidazoledione] | 4 µM
4 | N=C(N)NCCCc1[nH]c(=O)n(C(CCc2ccccc2)C(=O)N2CCC3(CCc4ccccc43)CC2)c1O [5-[3-amino(imino)methylaminopropyl]-3-[3-phenyl-1-spiro[2,3-dihydro-1H-indene-1,4'-(hexahydropyridine)]-1-ylcarbonylpropyl]-(5R)-tetrahydro-1H-2,4-imidazoledione] | 3 µM
